Assay results published in patent publication US9216968B2, “Heterocyclic derivative and pharmaceutical drug” (NIPPON SHINYAKU CO., LTD., priority 2011, dated 2015).
Where a name gives a salt, the structure may show the parent alone.

Experiments:
A549 cells = experiment: Inhibition of PGE2 production in A549 cell (IL-1β stimulated); assay type: cell-based, human; details: Homo sapiens, A549, 24 h, IL-1β 5 ng/well, PGE2 in culture medium
Outline: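 A549 cells preincubated 60 min with compound in RPMI/3% FBS (final DMSO 0.10), then stimulated with IL-1β (5 ng/well) for 24 h at 37 °C. PGE2 measured by HTRF and PGF2α by EIA in medium; IC50 from inhibition relative to stimulated minus unstimulated production.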

human mPGES-1 = human mPGES-1 (Homo sapiens (Human), UniProt O14684); experiment: mPGES-1 inhibiting activity (microsome fractions, PGE2 by HTRF); assay type: biochemical; details: microsomes from CHO-K1 cells transfected with human mPGES-1; PGH2 1 μM, 4° C., 60 seconds; read-out: mPGES-1 Inhibition IC50
Outline: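 PGE2 formation read by HTRF after 60 s at 4 °C with 1 μM PGH2 substrate, following 20 min compound preincubation (1% DMSO) with human mPGES-1 microsomes from transfected CHO-K1 cells. Buffer: potassium phosphate, reduced glutathione, pH 7.4; IC50 from activity relative to enzyme-free blank.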

Chain of human mPGES-1 (O14684 whole entry): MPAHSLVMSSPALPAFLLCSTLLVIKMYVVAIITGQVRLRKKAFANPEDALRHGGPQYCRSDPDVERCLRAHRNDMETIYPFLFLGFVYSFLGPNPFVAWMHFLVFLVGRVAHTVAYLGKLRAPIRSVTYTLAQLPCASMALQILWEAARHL

Row | SMILES | IC50 (A549 cells) [nM] | IC50 (human mPGES-1) [nM]
1 | Cc1ccc(NC(=O)c2cc(NC(=O)c3c(F)cccc3Cl)cc3[nH]c(N(C)C)nc23)cc1Cl [Example 205, 6-{[(2-Chloro-6-fluorophenyl)carbonyl]amino}-N-(3-chloro-4-methylphenyl)-2-(dimethylamino)-1H-benzimidazole-4-carboxamide hydrochloride] | 25.6 | 3.7
2 | Cc1ccc(NC(=O)c2cc(NC(=O)c3c(Cl)cccc3Cl)cc3[nH]c(N(C)C)nc23)cc1Cl [Example 206, N-(3-Chloro-4-methylphenyl)-6-{[(2,6-dichlorophenyl)carbonyl]amino}-2-(dimethylamino)-1H-benzimidazole-4-carboxamide hydrochloride] | 74.5 | 3.2
3 | Cc1ccc(NC(=O)c2cc(NC(=O)c3cc(Cl)ccc3Cl)cc3[nH]c(N(C)C)nc23)cc1Cl [Example 207, N-(3-Chloro-4-methylphenyl)-6-{[(2,5-dichlorophenyl)carbonyl]amino}-2-(dimethylamino)-1H-benzimidazole-4-carboxamide hydrochloride] | 6.2 | 3.6
4 | Cc1c(Cl)cccc1NC(=O)c1cc(NC(=O)c2cc(Cl)ccc2Cl)cc2[nH]c(C3CC3)nc12 [Example 208, N-(3-Chloro-2-methylphenyl)-2-cyclopropyl-6-{[(2,5-dichlorophenyl)carbonyl]amino}-1H-benzimidazole-4-carboxamide hydrochloride] | 13 | 0.7
5 | Cc1ccc(NC(=O)c2cc(NC(=O)c3cc(Cl)ccc3Cl)cc3[nH]c(C4CC4)nc23)cc1Cl [Example 209, N-(3-Chloro-4-methylphenyl)-2-cyclopropyl-6-{[(2,5-dichlorophenyl)carbonyl]amino}-1H-benzimidazole-4-carboxamide hydrochloride] | 10.3 | 1
6 | Cc1c(Cl)cccc1NC(=O)c1cc(NC(=O)c2cc(Cl)ccc2Cl)cc2[nH]c(C3(C)CC3)nc12 [Example 210, N-(3-Chloro-2-methylphenyl)-6-{[(2,5-dichlorophenyl)carbonyl]amino}-2-(1-methylcyclopropyl)-1H-benzimidazole-4-carboxamide hydrochloride] | 13.8 | 4.7
7 | Cc1ccc(NC(=O)c2cc(NC(=O)c3cc(Cl)ccc3Cl)cc3[nH]c(C4(C)CC4)nc23)cc1Cl [Example 211, N-(3-Chloro-4-methylphenyl)-6-{[(2,5-dichlorophenyl)carbonyl]amino}-2-(1-methylcyclopropyl)-1H-benzimidazole-4-carboxamide hydrochloride] | 8.5 | 2.5
8 | COCc1nc2c(C(=O)Nc3cccc(Cl)c3C)cc(NC(=O)c3ccccc3S(C)(=O)=O)cc2[nH]1 [Example 212, N-(3-Chloro-2-methylphenyl)-2-(methoxymethyl)-6-({[2-(methylsulfonyl)phenyl]carbonyl}amino)-1H-benzimidazole-4-carboxamide] | 305 | 42.3
9 | COCCc1nc2c(C(=O)Nc3ccc(C)c(Cl)c3)cc(NC(=O)c3cc(Cl)ccc3Cl)cc2[nH]1 [Example 213, N-(3-Chloro-4-methylphenyl)-6-{[(2,5-dichlorophenyl)carbonyl]amino}-2-(2-methoxyethyl)-1H-benzimidazole-4-carboxamide hydrochloride] | 142 | 0.9
10 | COCc1nc2c(C(=O)Nc3ccccc3)cc(NC(=O)c3ccccc3C(F)(F)F)cc2[nH]1 [Example 214, 2-(Methoxymethyl)-N-phenyl-6-({[2-(trifluoromethyl)phenyl]carbonyl}amino)-1H-benzimidazole-4-carboxamide hydrochloride] | 60.7 | 5.2
11 | CCCNC(=O)c1cc(NC(=O)c2ccccc2C(F)(F)F)cc2[nH]c(COC)nc12 [Example 215, 2-(Methoxymethyl)-N-propyl-6-({[2-(trifluoromethyl)phenyl]carbonyl}amino)-1H-benzimidazole-4-carboxamide hydrochloride] | 772 | 140
12 | COCc1nc2c(C(=O)NCc3ccccc3)cc(NC(=O)c3ccccc3C(F)(F)F)cc2[nH]1 [Example 217, N-Benzyl-2-(methoxymethyl)-6-({[2-(trifluoromethyl)phenyl]carbonyl}amino)-1H-benzimidazole-4-carboxamide hydrochloride] | 317 | 26.9
13 | COCc1nc2c(C(=O)NCC3CCCCC3)cc(NC(=O)c3ccccc3C(F)(F)F)cc2[nH]1 [Example 218, N-(Cyclohexylmethyl)-2-(methoxymethyl)-6-({[2-(trifluoromethyl)phenyl]carbonyl}amino)-1H-benzimidazole-4-carboxamide hydrochloride] | 42.8 | 5.3
14 | COCc1nc2c(C(=O)Nc3cccc4ccccc34)cc(NC(=O)c3ccccc3C(F)(F)F)cc2[nH]1 [Example 219, 2-(Methoxymethyl)-N-(naphthalen-1-yl)-6-({[2-(trifluoromethyl)phenyl]carbonyl}amino)-1H-benzimidazole-4-carboxamide hydrochloride] | 26 | 2
15 | CCCCOc1ccc(Cl)c(C(=O)Nc2cc(C(=O)Nc3cccc(Cl)c3C)c3nc(COC)[nH]c3c2)c1 [Example 247, 6-{[(5-Butoxy-2-chlorophenyl)carbonyl]amino}-N-(3-chloro-2-methylphenyl)-2-(methoxymethyl)-1H-benzimidazole-4-carboxamide hydrochloride] | 55 | 68.4

Further lines, results first:

Row | IC50 (A549 cells) [nM] | IC50 (human mPGES-1) [nM] | SMILES
16 | 39 | 2.3 | COCc1nc2c(C(=O)Nc3ccccc3Cc3ccccc3)cc(NC(=O)c3ccccc3C(F)(F)F)cc2[nH]1 [Example 229, N-(2-Benzylphenyl)-2-(methoxymethyl)-6-({[2-(trifluoromethyl)phenyl]carbonyl}amino)-1H-benzimidazole-4-carboxamide hydrochloride]
17 | 100 | 1.9 | COCc1nc2c(C(=O)Nc3cccc4cccnc34)cc(NC(=O)c3ccccc3C(F)(F)F)cc2[nH]1 [Example 230, 2-(Methoxymethyl)-N-(quinolin-8-yl)-6-({[2-(trifluoromethyl)phenyl]carbonyl}amino)-1H-benzimidazole-4-carboxamide hydrochloride]
18 | 150 | 1.9 | COCc1nc2c(C(=O)NCC3CCCCCC3)cc(NC(=O)c3ccccc3C(F)(F)F)cc2[nH]1 [Example 231, N-(Cycloheptylmethyl)-2-(methoxymethyl)-6-({[2-(trifluoromethyl)phenyl]carbonyl}amino)-1H-benzimidazole-4-carboxamide hydrochloride]
19 | 125 | 7.7 | COCc1nc2c(C(=O)Nc3nc4ccccc4o3)cc(NC(=O)c3ccccc3C(F)(F)F)cc2[nH]1 [Example 232, N-(1,3-Benzoxazol-2-yl)-2-(methoxymethyl)-6-({[2-(trifluoromethyl)phenyl]carbonyl}amino)-1H-benzimidazole-4-carboxamide hydrochloride]
20 | 195 | 2.5 | COCc1nc2c(C(=O)Nc3nc4ccc(Cl)cc4o3)cc(NC(=O)c3ccccc3C(F)(F)F)cc2[nH]1 [Example 233, N-(6-Chloro-1,3-benzoxazol-2-yl)-2-(methoxymethyl)-6-({[2-(trifluoromethyl)phenyl]carbonyl}amino)-1H-benzimidazole-4-carboxamide hydrochloride]
21 | 198 | 97.4 | COCc1nc2c(C(=O)Nc3cccc(Cl)c3CO)cc(NC(=O)c3ccccc3C(F)(F)F)cc2[nH]1 [Example 234, N-[3-Chloro-2-(hydroxymethyl)phenyl]-2-(methoxymethyl)-6-({[2-(trifluoromethyl)phenyl]carbonyl}amino)-1H-benzimidazole-4-carboxamide]
22 | 104 | 56.2 | COCc1nc2c(C(=O)Nc3cccc(Cl)c3C)cc(NC(=O)c3ncccc3F)cc2[nH]1 [Example 244, N-(3-Chloro-2-methylphenyl)-6-{[(3-fluoropyridin-2-yl)carbonyl]amino}-2-(methoxymethyl)-1H-benzimidazole-4-carboxamide hydrochloride]
23 | 166 | 25.7 | COCc1nc2c(C(=O)Nc3cccc(Cl)c3C)cc(NC(=O)c3ccncc3Cl)cc2[nH]1 [Example 245, N-(3-Chloro-2-methylphenyl)-6-{[(3-chloropyridin-4-yl)carbonyl]amino}-2-(methoxymethyl)-1H-benzimidazole-4-carboxamide hydrochloride]
24 | 132 | 35.9 | COCc1nc2c(C(=O)Nc3cccc(Cl)c3C)cc(NC(=O)c3c(Cl)cncc3Cl)cc2[nH]1 [Example 246, N-(3-Chloro-2-methylphenyl)-6-{[(3,5-dichloropyridin-4-yl)carbonyl]amino}-2-(methoxymethyl)-1H-benzimidazole-4-carboxamide hydrochloride]
